Key:
[1] = target: cellular IDO1 in HeLa cells (Homo sapiens (Human), UniProt P14902); assay: HeLa Cell-Based IDO1 Kyn (Kynurenine) Production Assay; details: IFN-γ induced IDO1, 48 hours incubation, Kyn absorbance at 480 nm
Summary of the method: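 Compounds added to HeLa cells together with IFN-γ (100 ng/mL final) and 0.4 mM L-Trp, 48 h at 37 °C. Kynurenine in TCA-deproteinized supernatant measured colorimetrically with 4-(dimethylamino)benzaldehyde at 480 nm; IC50 from four-parameter logistic fit.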

Recombinant IDO1 = Recombinant IDO1 (Homo sapiens (Human), UniProt P14902); assay: IDO1 enzymatic assay; assay type: biochemical; details: 50 nM IDO1, 1.3 mM D-tryptophan, pH 7.5, read-out: Enzyme assay IC50
Method: Recombinant IDO1 was overexpressed and purified from E. coli cells with an N-terminal His tag. IDO1 enzymatic assay was carried out using a methodology similar to described in the literature (J. Biol. Chem. (1980), 255, 1339-1345). The reaction mixture contains 50 nM IDO1, 1.3 mM D-tryptophan, 5 mM L-ascorbic acid, […] methylene Blue, 0.4 mg/mL catalase and compound (or DMSO) in a buffer containing 50 mM potassium phosphate pH 7.5 and 0.1% BSA. After incubation at 24° C. for 1.5 hours, absorbance of the reaction mixture was continuously read at 321 nm to monitor the formation of N′-formylkynurenine by a FULOstar OMEGA plate reader (BMG LABTECH) for 1 hour. The enzymatic activity was determined by measuring the slope of the linear absorbance increase as a function of time. The IC50s are calculated based on remaining enzyme activity in the presence of increasing concentrations of compounds.

Chain of cellular IDO1 in HeLa cells (P14902 whole entry): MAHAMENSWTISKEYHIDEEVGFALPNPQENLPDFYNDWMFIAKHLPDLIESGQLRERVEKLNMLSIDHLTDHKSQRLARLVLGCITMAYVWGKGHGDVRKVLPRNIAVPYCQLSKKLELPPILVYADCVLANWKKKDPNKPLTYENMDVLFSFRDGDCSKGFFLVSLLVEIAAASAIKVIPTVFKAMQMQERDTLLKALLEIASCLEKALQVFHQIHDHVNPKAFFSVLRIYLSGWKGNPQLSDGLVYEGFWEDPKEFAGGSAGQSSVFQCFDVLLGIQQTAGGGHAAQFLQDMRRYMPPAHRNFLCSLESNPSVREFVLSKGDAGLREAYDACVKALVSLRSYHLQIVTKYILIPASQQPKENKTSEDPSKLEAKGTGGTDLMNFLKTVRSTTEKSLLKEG
Chain of Recombinant IDO1 (P14902 whole entry, species assumed): as the sequence (P14902 whole entry) above

EC50 [1] | IC50 (Recombinant IDO1) | Compound
99 nM | 6.9 µM | Fc1cc2nc(C[C@H]3CC[C@@H](c4ccccc4)CC3)[nH]c2cc1Br [Example A37b, 6-bromo-5-fluoro-2-(((1s,4s)-4-phenylcyclohexyl)methyl)-1H-benzo[d]imidazole]
143 nM | > 10 µM | Fc1ccc2nccc(C3CCN(CCc4nc5cc(Cl)ccc5[nH]4)CC3)c2c1 [Example A38, 4-(1-(2-(5-chloro-1H-benzo[d]imidazol-2-yl)ethyl)piperidin-4-yl)-6-fluoroquinoline]
852 nM | > 10 µM | Clc1ccc2[nH]c(CC3CCN(c4ccnc5ccccc45)CC3)nc2c1 [Example A40, 4-(4-((5-chloro-1H-benzo[d]imidazol-2-yl)methyl)piperidin-1-yl)quinoline]
481 nM | > 10 µM | Fc1ccc2nccc(N3CCC(Cc4nc5cc(Cl)ccc5[nH]4)CC3)c2c1 [Example A41, 4-(4-((5-chloro-1H-benzo[d]imidazol-2-yl)methyl)piperidin-1-yl)-6-fluoroquinoline]

From patent US11472788B2, “Benzoimidazoles as selective inhibitors of indoleamine 2,3-dioxygenases” (BEIGENE, LTD., priority 2017, dated 2022)
